In patent US8846750B2, “Pharmaceutical and food compositions for preventing or treating diabetes or obesity” (Korea Ocean Research and Development Institute, priority 2010, dated 2014):
Several values for one entry are separate records, joined by “and”; a condition that tells them apart may be missing. Equal values may be shown once.

Columns and labels:
[1] = test system: db/db mice (type 2 diabetic model animals); assay: Change in blood glucose level after intraperitoneal administration; assay type: in vivo; conditions: 10 mg/kg intraperitoneally daily; for increase in the blood glucose level compared with control group: days 0-21; for average blood glucose level: db/db mice
Procedure: (§1) Based on pre-tests, effectiveness tests and toxicity tests for sodium lobarate, dose (expressed as test compound amount (mg)/test animal's weight (kg)) was determined. To 7-week-old male db/db mice (type 2 diabetic model animals, C57/BLKS/J-db/db, the Korea Research Institute of Bioscience and Biotechnology), 200 μl of PBS for a control group and 10 mg/kg of sodium lobarate (PTP-1b activity inhibitory compound) for a test group was administered, respectively, intraperitoneally daily, and the blood glucose levels of the animals were measured twice a week.
Specifically, sodium lobarate (PTP-1b activity inhibitory compound) was administered by intraperitoneal injection to 7-week-old male db/db mice (type 2 diabetic model animals, C57/BLKS/J-db/db, the Korea Research Institute of Bioscience and Biotechnology), and the change in the blood glucose level of the animals was measured.
as §1, with “Lobarin,” for “sodium lobarate,”, “Lobarin” for “sodium lobarate (PTP-1b activity inhibitory compound)”
Specifically, Lobarin was administered by intraperitoneal injection to 7-week-old male db/db mice (type 2 diabetic model animals, C57/BLKS/J-db/db, the Korea Research Institute of Bioscience and Biotechnology), and the change in blood glucose level of the animals was measured.
as §1, with “Lobarstin,” for “sodium lobarate,”, “Lobarstin” for “sodium lobarate (PTP-1b activity inhibitory compound)”
Specifically, Lobarstin was administered by intraperitoneal injection to 7-week-old male db/db mice (type 2 diabetic model animals, C57/BLKS/J-db/db, the Korea Research Institute of Bioscience and Biotechnology), and the change in blood glucose level of the animals was measured.

[2] = molecular target: T1, PTP-1b (protein tyrosine phosphatase-1b) (Homo sapiens, UniProt P18031); assay: PTP-1b inhibitory activity, malachite green assay with [pTyr1146] insulin receptor substrate; assay type: biochemical; conditions: PTP-1b (Bioneer), absorbance at 620 nm; read-out: IC50 against PTP-1b
T1 construct: purchased Bioneer, Korea
T1 sequence (P18031 1-435): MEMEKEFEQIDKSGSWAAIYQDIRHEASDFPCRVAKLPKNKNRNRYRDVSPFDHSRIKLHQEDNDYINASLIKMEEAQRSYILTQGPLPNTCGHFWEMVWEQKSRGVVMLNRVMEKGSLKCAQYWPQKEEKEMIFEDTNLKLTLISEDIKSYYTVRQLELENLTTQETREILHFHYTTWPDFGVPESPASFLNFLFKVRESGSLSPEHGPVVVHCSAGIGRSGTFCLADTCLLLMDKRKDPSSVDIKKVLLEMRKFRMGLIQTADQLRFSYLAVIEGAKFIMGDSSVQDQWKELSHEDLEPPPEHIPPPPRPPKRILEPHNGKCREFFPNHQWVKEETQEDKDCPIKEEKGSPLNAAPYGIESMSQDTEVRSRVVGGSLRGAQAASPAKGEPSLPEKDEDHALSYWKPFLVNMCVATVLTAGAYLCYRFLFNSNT
Procedure: In order to analyze the PTP-1b (protein tyrosine phosphatase-1b) inhibitory activity of sodium lobarate, the activity of the enzyme was spectroscopically measured.
(§2) Specifically, to 0.5 mg/Ml of PTP-1b (Bioneer, Korea) in PTP-1b buffer (20 mM Tris-HCl, pH 8.0, 0.75 mM NaCl, 0.5 mM EDTA, 5 mM β-mercaptoethanol, 50% glycerol), 0, 1, 3, 10, 30, 100, 300, 1,000 and 3,000 nM of sodium lobarate and the substrate [pTyr1146] insulin receptor (1142-1153, Sigma, USA) were added. Each mixture was allowed to react at room temperature for 10-30 minutes, and malachite green-molybdate dye solution was added thereto and reacted at room temperature for 10 minutes. After completion between PTP-1b, sodium lobarate and the substrate, the absorbance at 620 nm was measured.
The activity of the enzyme was spectroscopically measured to analyze the protein PTP-1b inhibitory activity of Lobarin.
as §2, with “Tris-HCL,” for “Tris-HCl,”, “1000 or 3000” for “1,000 and 3,000”, “Lobarin” for “of sodium lobarate”, “of the mixtures” for “mixture”, “Lobarin” for “sodium lobarate”
The activity of the enzyme was spectroscopically measured to analyze the protein PTP-1b inhibitory activity of Lobarstin. Specifically, to 0.5 mg/Ml of PTP-1b (Bioneer, Korea) in PTP-1b buffer (20 mM Tris-HCL, pH 8.0, 0.75 mM NaCl, 0.5 mM EDTA, 5 mM β-mercaptoethanol, 50% glycerol), 0, 1, 3, 10, 30, 100, 300, 1000 or 3000 nM Lobarstin and the substrate [pTyr1146] insulin receptor (1142-1153, Sigma, USA) were added. […] After completion between PTP-1b, Lobarstin and the substrate, the absorbance at 620 nm was measured.

SMILES	increase in the blood glucose level compared with control group [1]	average blood glucose level ([1]; day 0)	average blood glucose level ([1]; day 3)	average blood glucose level ([1]; day 7)	average blood glucose level ([1]; day 10)	average blood glucose level ([1]; day 14)	average blood glucose level ([1]; day 17)	average blood glucose level ([1]; day 21)	IC50 [2]
CCCCCc1c(Oc2cc(OC)cc3c2C(=O)OC3(O)CCCC)c(O)cc(O)c1C(=O)O (stereo not drawn) [Lobarin]	less than that in the control group	267 mg/dL	278 mg/dL	298 mg/dL	315 mg/dL	352 mg/dL	379 mg/dL	425 mg/dL	0.149 µM and 0.155 µM
CCCCCc1c2c(cc(O)c1C(=O)[O-])OC(=O)c1c(cc(OC)cc1C(=O)CCCC)O2.[Na+] [sodium lobarate]	less than that in the control group	267 mg/dL	276 mg/dL	378 mg/dL	378 mg/dL	407 mg/dL	415 mg/dL	459 mg/dL	0.35 µM
CCC/C=C1/OC(=O)c2c(Oc3c(O)cc(O)c(C(=O)O)c3CCCCC)cc(OC)cc21 [Lobarstin]	less than that in the control group	299 mg/dL	–	259 mg/dL	–	267 mg/dL	–	242 mg/dL	0.155 µM
